Test results published in PubChem BioAssay (NCI).
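1) Cells in 96-well plates. 2) Compound, 48 h, 5 concentrations. 3) Linear interpolation between surrounding doses. 4) Unreached endpoint = highest concentration. Definition used: TGI = concentration required for complete inhibition of growth.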

Legend:
Experiment in all cases: NCI anticancer screen, dose series, 48 h
OVCAR-4 ovarian = tested on: OVCAR-4 ovarian
MDA-MB-231 breast = tested on: MDA-MB-231 breast
HOP-92 NSCLC = tested on: HOP-92 NSCLC
UACC-62 melanoma = tested on: UACC-62 melanoma
OVCAR-3 ovarian = tested on: OVCAR-3 ovarian
SN12C renal = tested on: SN12C renal
786-0 renal = tested on: 786-0 renal
MOLT-4 leukemia = tested on: MOLT-4 leukemia
SNB-19 CNS = tested on: SNB-19 CNS
K-562 leukemia = tested on: K-562 leukemia
EKVX NSCLC = tested on: EKVX NSCLC
CAKI-1 renal = tested on: CAKI-1 renal
KM12 colon = tested on: KM12 colon
SF-268 CNS = tested on: SF-268 CNS
NCI-H460 lung = tested on: NCI-H460 lung
UO-31 renal = tested on: UO-31 renal
CCRF-CEM leukemia = tested on: CCRF-CEM leukemia
IGROV1 ovarian = tested on: IGROV1 ovarian
A549 NSCLC = tested on: A549 NSCLC
HCT-116 colon = tested on: HCT-116 colon
TK-10 renal = tested on: TK-10 renal
HS 578T breast = tested on: HS 578T breast
PC-3 prostate = tested on: PC-3 prostate
SK-OV-3 ovarian = tested on: SK-OV-3 ovarian
SK-MEL-2 melanoma = tested on: SK-MEL-2 melanoma
ACHN renal = tested on: ACHN renal
NCI-H522 lung = tested on: NCI-H522 lung
SW-620 colon = tested on: SW-620 colon
OVCAR-8 ovarian = tested on: OVCAR-8 ovarian
NCI/ADR-RES ovarian = tested on: NCI/ADR-RES ovarian
BT-549 breast = tested on: BT-549 breast
MDA-MB-435 = tested on: MDA-MB-435
COLO 205 colon = tested on: COLO 205 colon
A498 renal = tested on: A498 renal
SK-MEL-28 melanoma = tested on: SK-MEL-28 melanoma
HCC-2998 colon = tested on: HCC-2998 colon
SF-539 CNS = tested on: SF-539 CNS
MDA-N = tested on: MDA-N
SR leukemia = tested on: SR leukemia
NCI-H23 lung = tested on: NCI-H23 lung
NCI-H226 lung = tested on: NCI-H226 lung
HOP-62 NSCLC = tested on: HOP-62 NSCLC
RXF 393 renal = tested on: RXF 393 renal
HL-60(TB) leukemia = tested on: HL-60(TB) leukemia
LOX IMVI melanoma = tested on: LOX IMVI melanoma
U251 CNS = tested on: U251 CNS
DU-145 prostate = tested on: DU-145 prostate
SK-MEL-5 melanoma = tested on: SK-MEL-5 melanoma
RPMI-8226 leukemia = tested on: RPMI-8226 leukemia
HCT-15 colon = tested on: HCT-15 colon
SF-295 CNS = tested on: SF-295 CNS
MCF7 breast = tested on: MCF7 breast
MALME-3M melanoma = tested on: MALME-3M melanoma
OVCAR-5 ovarian = tested on: OVCAR-5 ovarian
UACC-257 melanoma = tested on: UACC-257 melanoma
HT29 colon = tested on: HT29 colon
SNB-75 CNS = tested on: SNB-75 CNS
M14 melanoma = tested on: M14 melanoma

SMILES: N#CSC#Cc1ccc(C#CSC#N)cc1
- TGI (OVCAR-4 ovarian): 36 µM
- TGI (MDA-MB-231 breast): 35.2 µM
- TGI (HOP-92 NSCLC): 26 µM
- TGI (UACC-62 melanoma): 32.5 µM
- TGI (OVCAR-3 ovarian): 39.7 µM
- TGI (SN12C renal): 34.6 µM
- TGI (786-0 renal): 33.5 µM
- TGI (MOLT-4 leukemia): > 100 µM
- TGI (SNB-19 CNS): 47.7 µM
- TGI (K-562 leukemia): > 100 µM
- TGI (EKVX NSCLC): 37.2 µM
- TGI (CAKI-1 renal): 31.6 µM
- TGI (KM12 colon): 36.8 µM
- TGI (SF-268 CNS): 51.7 µM
- TGI (NCI-H460 lung): 38.9 µM
- TGI (UO-31 renal): 33.6 µM
- TGI (CCRF-CEM leukemia): > 100 µM
- TGI (IGROV1 ovarian): 30.5 µM
- TGI (A549 NSCLC): 33.7 µM
- TGI (HCT-116 colon): 38.7 µM
- TGI (TK-10 renal): 31.3 µM
- TGI (HS 578T breast): 48.8 µM
- TGI (PC-3 prostate): 29.5 µM
- TGI (SK-OV-3 ovarian): 43 µM
- TGI (SK-MEL-2 melanoma): 38.8 µM
- TGI (ACHN renal): 30.1 µM
- TGI (NCI-H522 lung): 29 µM
- TGI (SW-620 colon): 44.1 µM
- TGI (OVCAR-8 ovarian): 42.6 µM
- TGI (NCI/ADR-RES ovarian): 42.5 µM
- TGI (BT-549 breast): 32.4 µM
- TGI (MDA-MB-435): 45.4 µM
- TGI (COLO 205 colon): 34.6 µM
- TGI (A498 renal): 36.8 µM
- TGI (SK-MEL-28 melanoma): 57.2 µM
- TGI (HCC-2998 colon): 34.3 µM
- TGI (SF-539 CNS): 43.3 µM
- TGI (MDA-N): 34.5 µM
- TGI (SR leukemia): > 100 µM
- TGI (NCI-H23 lung): 35.5 µM
- TGI (NCI-H226 lung): 53.6 µM
- TGI (HOP-62 NSCLC): 39.3 µM
- TGI (RXF 393 renal): 35.7 µM
- TGI (HL-60(TB) leukemia): > 100 µM
- TGI (LOX IMVI melanoma): 34.5 µM
- TGI (U251 CNS): 41.8 µM
- TGI (DU-145 prostate): 28.3 µM
- TGI (SK-MEL-5 melanoma): 33.2 µM
- TGI (RPMI-8226 leukemia): > 100 µM
- TGI (HCT-15 colon): 38 µM
- TGI (SF-295 CNS): 43.4 µM
- TGI (MCF7 breast): 38.6 µM
- TGI (MALME-3M melanoma): 51.9 µM
- TGI (OVCAR-5 ovarian): 34.9 µM
- TGI (UACC-257 melanoma): 33.8 µM
- TGI (HT29 colon): 42.1 µM

SMILES: COC(C)(C)C1=CCC(C)CC1 (stereo unspecified)
- TGI (SNB-75 CNS): > 100 µM
- TGI (OVCAR-4 ovarian): > 100 µM
- TGI (HOP-92 NSCLC): > 100 µM
- TGI (UACC-62 melanoma): > 100 µM
- TGI (OVCAR-3 ovarian): > 100 µM
- TGI (SN12C renal): > 100 µM
- TGI (786-0 renal): > 100 µM
- TGI (MOLT-4 leukemia): > 100 µM
- TGI (SNB-19 CNS): > 100 µM
- TGI (EKVX NSCLC): > 100 µM
- TGI (CAKI-1 renal): > 100 µM
- TGI (KM12 colon): > 100 µM
- TGI (SF-268 CNS): > 100 µM
- TGI (NCI-H460 lung): > 100 µM
- TGI (UO-31 renal): > 100 µM
- TGI (IGROV1 ovarian): > 100 µM
- TGI (A549 NSCLC): > 100 µM
- TGI (HCT-116 colon): > 100 µM
- TGI (TK-10 renal): > 100 µM
- TGI (HS 578T breast): > 100 µM
- TGI (PC-3 prostate): > 100 µM
- TGI (SK-OV-3 ovarian): > 100 µM
- TGI (ACHN renal): > 100 µM
- TGI (NCI-H522 lung): > 100 µM
- TGI (SW-620 colon): > 100 µM
- TGI (OVCAR-8 ovarian): > 100 µM
- TGI (BT-549 breast): > 100 µM
- TGI (MDA-MB-435): > 100 µM
- TGI (COLO 205 colon): > 100 µM
- TGI (A498 renal): > 100 µM
- TGI (SK-MEL-28 melanoma): > 100 µM
- TGI (HCC-2998 colon): > 100 µM
- TGI (SF-539 CNS): > 100 µM
- TGI (MDA-N): > 100 µM
- TGI (SR leukemia): 78 µM
- TGI (M14 melanoma): > 100 µM
- TGI (NCI-H23 lung): > 100 µM
- TGI (HOP-62 NSCLC): > 100 µM
- TGI (RXF 393 renal): > 100 µM
- TGI (U251 CNS): > 100 µM
- TGI (DU-145 prostate): > 100 µM
- TGI (SK-MEL-5 melanoma): > 100 µM
- TGI (RPMI-8226 leukemia): > 100 µM
- TGI (HCT-15 colon): > 100 µM
- TGI (SF-295 CNS): > 100 µM
- TGI (MCF7 breast): > 100 µM
- TGI (MALME-3M melanoma): > 100 µM
- TGI (OVCAR-5 ovarian): > 100 µM
- TGI (UACC-257 melanoma): > 100 µM
- TGI (HT29 colon): > 100 µM
